ChEMBL document CHEMBL4190377, “Design of Aminopeptidase N Inhibitors as Anti-cancer Agents” (J Med Chem, 2018)
In brackets after ≈: the same amount, converted by molar mass. One block for each compound: values may come before it.

Columns and labels:
Aminopeptidase N [1] = molecular target: T1, Aminopeptidase N (Sus scrofa, UniProt P15145); experiment: Inhibition of APN in porcine kidney microsomes using L-leucine-p-nitroanilide as substrate preincubated for 30 mins followed by substrate addition by UV-visible spectrophotometric method
T1 sequence (P15145 whole entry): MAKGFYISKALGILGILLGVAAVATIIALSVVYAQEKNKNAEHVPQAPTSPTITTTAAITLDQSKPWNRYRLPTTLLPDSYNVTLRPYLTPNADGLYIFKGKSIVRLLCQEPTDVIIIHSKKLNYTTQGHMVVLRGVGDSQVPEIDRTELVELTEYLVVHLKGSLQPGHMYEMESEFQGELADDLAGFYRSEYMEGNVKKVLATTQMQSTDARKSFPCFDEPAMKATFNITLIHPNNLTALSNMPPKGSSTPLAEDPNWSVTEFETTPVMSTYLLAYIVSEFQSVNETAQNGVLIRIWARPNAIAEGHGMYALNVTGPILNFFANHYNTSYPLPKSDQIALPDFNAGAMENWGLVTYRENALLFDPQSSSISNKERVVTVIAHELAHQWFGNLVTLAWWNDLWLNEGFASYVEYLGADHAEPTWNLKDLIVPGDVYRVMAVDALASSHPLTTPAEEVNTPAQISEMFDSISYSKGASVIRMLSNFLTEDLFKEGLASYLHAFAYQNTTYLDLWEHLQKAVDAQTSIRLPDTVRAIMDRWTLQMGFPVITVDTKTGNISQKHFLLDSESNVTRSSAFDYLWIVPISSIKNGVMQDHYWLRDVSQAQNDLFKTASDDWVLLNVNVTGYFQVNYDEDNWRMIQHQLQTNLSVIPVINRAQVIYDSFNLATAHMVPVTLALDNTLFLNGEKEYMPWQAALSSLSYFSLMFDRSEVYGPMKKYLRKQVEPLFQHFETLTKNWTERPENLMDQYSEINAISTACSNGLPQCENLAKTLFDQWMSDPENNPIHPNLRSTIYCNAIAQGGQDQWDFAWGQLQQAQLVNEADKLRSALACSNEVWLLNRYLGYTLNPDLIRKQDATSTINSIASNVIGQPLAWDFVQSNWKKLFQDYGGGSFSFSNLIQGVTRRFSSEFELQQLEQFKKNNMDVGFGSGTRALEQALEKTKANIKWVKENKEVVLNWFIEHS

HL-60 [2] = experiment: Antiproliferative activity against human HL60 cells after 72 hrs by MTT assay; type: functional, cell-based; conditions: HL-60, 72 h
Glutamyl aminopeptidase [3] = molecular target: T2, Glutamyl aminopeptidase (Homo sapiens, UniProt Q07075); experiment: Inhibition of APA (unknown origin) using GlubetaNA as substrate after 30 mins
Aminopeptidase N [4] = molecular target: T1, Aminopeptidase N; experiment: Inhibition of APN in porcine kidney using Ala-betaNA as substrate preincubated for 10 mins followed by substrate addition measured after 30 mins by fluorescence spectrofluorometric method
Aminopeptidase N [5] = molecular target: T3, Aminopeptidase N (Homo sapiens, UniProt P15144)
Description: Inhibition of APN (unknown origin)

SK-OV-3 = experiment: Antiproliferative activity against human SKOV3 cells after 48 hrs by MTT assay; type: functional, cell-based; conditions: SK-OV-3, 48 h
Aminopeptidase N [6] = molecular target: T1, Aminopeptidase N; experiment: Inhibition of APN in porcine kidney microsomes using L-leucine-p-nitroanilide as substrate preincubated for 30 mins followed by substrate addition measured after 15 mins by UV-visible spectrophotometric method
[7] = molecular target: 72 kDa type IV collagenase (Homo sapiens, UniProt P08253); experiment: Inhibition of recombinant human MMP2 expressed in Escherichia coli preincubated for 30 mins followed by succinylated gelatin substrate addition measured after 60 mins
HL-60 [8] = experiment: Antiproliferative activity against human HL60 cells after 48 hrs by MTT assay; type: functional, cell-based; conditions: HL-60, 48 h
Mus musculus = experiment: Increase in plasma vasopressin release in mouse at 100 ug administered as single dose by RIA; type: functional
Aminopeptidase B = molecular target: T4, Aminopeptidase B (Rattus norvegicus, UniProt O09175); experiment: Inhibition of APB in rat testis using ArgbetaNA as substrate
T4 sequence (O09175 whole entry): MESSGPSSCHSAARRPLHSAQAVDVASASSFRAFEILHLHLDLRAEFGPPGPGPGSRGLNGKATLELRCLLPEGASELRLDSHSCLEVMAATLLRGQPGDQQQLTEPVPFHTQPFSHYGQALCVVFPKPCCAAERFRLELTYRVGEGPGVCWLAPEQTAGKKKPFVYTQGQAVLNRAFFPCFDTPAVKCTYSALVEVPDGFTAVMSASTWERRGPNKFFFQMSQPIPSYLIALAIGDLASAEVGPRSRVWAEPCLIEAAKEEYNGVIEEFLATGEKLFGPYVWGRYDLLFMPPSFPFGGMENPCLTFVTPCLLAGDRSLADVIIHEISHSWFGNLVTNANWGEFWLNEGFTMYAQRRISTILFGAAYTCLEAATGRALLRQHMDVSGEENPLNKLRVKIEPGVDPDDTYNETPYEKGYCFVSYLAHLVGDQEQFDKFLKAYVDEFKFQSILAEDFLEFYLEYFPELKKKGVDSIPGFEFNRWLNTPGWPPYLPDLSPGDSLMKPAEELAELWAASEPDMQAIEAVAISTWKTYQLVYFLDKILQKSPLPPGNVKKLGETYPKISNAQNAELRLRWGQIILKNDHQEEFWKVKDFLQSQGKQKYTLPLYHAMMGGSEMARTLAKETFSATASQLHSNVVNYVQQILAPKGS

[9] = molecular target: T5, Leukotriene A-4 hydrolase (Homo sapiens, UniProt P09960); experiment: Inhibition of full-length recombinant C-terminal FLAG-tagged human leukotriene A4 hydrolase expressed in baculovirus-infected insect cells using Arg-AMC as substrate after 1 hr by fluorescence assay
T5 sequence (P09960 whole entry): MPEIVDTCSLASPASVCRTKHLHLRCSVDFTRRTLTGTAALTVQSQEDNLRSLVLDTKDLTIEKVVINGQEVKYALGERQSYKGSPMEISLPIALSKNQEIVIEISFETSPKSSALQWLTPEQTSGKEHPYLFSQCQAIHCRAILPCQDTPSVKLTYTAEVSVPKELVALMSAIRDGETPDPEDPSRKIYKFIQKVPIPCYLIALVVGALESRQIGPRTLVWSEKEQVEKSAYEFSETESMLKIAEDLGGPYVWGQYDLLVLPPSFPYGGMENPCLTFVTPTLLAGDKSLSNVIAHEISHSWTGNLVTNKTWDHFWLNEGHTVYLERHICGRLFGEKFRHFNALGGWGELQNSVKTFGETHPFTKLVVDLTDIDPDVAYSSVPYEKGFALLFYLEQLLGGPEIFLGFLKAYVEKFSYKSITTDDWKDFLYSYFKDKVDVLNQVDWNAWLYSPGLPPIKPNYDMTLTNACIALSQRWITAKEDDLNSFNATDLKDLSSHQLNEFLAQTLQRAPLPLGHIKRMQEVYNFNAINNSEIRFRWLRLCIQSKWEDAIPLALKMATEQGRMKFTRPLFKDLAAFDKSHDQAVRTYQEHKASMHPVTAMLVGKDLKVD

Cytosol aminopeptidase = molecular target: T6, Cytosol aminopeptidase (Sus scrofa, UniProt P28839); experiment: Inhibition of porcine kidney leucine aminopeptidase using LGG as substrate after 90 mins
T6 sequence (P28839 whole entry): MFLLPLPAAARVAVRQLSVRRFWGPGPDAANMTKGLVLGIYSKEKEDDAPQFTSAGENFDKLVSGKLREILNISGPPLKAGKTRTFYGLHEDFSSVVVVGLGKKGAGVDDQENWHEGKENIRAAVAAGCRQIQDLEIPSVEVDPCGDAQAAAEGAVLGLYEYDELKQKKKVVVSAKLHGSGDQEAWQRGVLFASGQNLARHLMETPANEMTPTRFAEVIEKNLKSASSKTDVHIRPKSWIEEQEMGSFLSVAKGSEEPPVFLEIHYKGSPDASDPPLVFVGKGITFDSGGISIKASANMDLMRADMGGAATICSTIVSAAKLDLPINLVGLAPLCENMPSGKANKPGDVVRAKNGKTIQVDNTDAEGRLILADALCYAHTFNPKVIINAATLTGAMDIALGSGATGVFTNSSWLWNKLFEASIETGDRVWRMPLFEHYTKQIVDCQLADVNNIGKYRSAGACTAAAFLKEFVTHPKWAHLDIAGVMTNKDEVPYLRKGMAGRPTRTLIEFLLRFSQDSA

Glutamyl aminopeptidase [10] = molecular target: T2, Glutamyl aminopeptidase; experiment: Inhibition of APA (unknown origin) using GluNA as substrate
Aminopeptidase N [11] = molecular target: T1, Aminopeptidase N; experiment: Inhibition of APN in porcine kidney using Ala-p-NA as substrate
Aminopeptidase N [12] = molecular target: T1, Aminopeptidase N; experiment: Inhibition of pig APN
[13] = molecular target: T7, Cytosol aminopeptidase (Sus scrofa) (UniProt P28839); experiment: Potency index, ratio of bestatin IC50 to compound IC50 for porcine kidney leucine aminopeptidase
T7 sequence (whole entry): T6 sequence (P28839 whole entry)

[14] = Selectivity ratio of IC50 for APN (unknown origin) to IC50 for porcine kidney leucine aminopeptidase
Aminopeptidase N [15] = molecular target: T3, Aminopeptidase N; experiment: Competitive inhibition of aminopeptidase-M (unknown origin)
Leucine aminopeptidase = molecular target: T8, Leucine aminopeptidase (Sus scrofa, UniProt Q29571); experiment: Competitive inhibition of LAP in porcine kidney microsomes
T8 sequence (Q29571 whole entry): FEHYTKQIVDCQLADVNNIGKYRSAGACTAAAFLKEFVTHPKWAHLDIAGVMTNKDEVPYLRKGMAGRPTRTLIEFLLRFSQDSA

[16] = Solubility in PBS; type: physicochemical
MDA-MB-231 = experiment: Antiproliferative activity against human MDA-MB-231 cells after 48 hrs by MTT assay; type: functional, cell-based; conditions: MDA-MB-231, 48 h
[17] = Antiproliferative activity against human ES2 cells over-expressing APN after 48 hrs by MTT assay; type: functional, cell-based; conditions: ES-2, 48 h
A549 = experiment: Antiproliferative activity against human A549 cells over-expressing APN after 48 hrs by MTT assay; type: functional, cell-based; conditions: A549, 48 h

T2 sequence (Q07075 whole entry): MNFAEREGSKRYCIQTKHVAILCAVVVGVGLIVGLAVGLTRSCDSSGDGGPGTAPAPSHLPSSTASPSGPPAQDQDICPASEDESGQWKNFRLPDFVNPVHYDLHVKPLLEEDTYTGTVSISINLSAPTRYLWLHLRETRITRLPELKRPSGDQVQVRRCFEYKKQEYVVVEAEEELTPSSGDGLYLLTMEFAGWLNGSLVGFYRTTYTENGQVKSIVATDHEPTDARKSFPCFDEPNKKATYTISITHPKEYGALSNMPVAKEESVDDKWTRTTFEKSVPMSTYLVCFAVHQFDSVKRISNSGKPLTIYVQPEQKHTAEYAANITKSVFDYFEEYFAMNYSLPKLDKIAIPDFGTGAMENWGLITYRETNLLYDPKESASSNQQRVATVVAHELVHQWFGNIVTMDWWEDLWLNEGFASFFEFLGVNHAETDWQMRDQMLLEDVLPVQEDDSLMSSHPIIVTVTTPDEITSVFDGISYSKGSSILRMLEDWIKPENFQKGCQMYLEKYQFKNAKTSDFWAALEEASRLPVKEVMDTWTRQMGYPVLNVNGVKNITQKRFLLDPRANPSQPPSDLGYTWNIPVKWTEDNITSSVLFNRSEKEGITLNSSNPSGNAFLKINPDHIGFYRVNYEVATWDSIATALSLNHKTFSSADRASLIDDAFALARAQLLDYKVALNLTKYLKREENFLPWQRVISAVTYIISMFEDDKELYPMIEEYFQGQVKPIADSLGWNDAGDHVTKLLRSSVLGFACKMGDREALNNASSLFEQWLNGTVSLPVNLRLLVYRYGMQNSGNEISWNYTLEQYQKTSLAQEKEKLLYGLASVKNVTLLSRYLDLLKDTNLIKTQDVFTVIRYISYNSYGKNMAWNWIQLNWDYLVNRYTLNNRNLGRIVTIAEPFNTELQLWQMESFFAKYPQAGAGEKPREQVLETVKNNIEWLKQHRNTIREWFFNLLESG
T3 sequence (P15144 whole entry): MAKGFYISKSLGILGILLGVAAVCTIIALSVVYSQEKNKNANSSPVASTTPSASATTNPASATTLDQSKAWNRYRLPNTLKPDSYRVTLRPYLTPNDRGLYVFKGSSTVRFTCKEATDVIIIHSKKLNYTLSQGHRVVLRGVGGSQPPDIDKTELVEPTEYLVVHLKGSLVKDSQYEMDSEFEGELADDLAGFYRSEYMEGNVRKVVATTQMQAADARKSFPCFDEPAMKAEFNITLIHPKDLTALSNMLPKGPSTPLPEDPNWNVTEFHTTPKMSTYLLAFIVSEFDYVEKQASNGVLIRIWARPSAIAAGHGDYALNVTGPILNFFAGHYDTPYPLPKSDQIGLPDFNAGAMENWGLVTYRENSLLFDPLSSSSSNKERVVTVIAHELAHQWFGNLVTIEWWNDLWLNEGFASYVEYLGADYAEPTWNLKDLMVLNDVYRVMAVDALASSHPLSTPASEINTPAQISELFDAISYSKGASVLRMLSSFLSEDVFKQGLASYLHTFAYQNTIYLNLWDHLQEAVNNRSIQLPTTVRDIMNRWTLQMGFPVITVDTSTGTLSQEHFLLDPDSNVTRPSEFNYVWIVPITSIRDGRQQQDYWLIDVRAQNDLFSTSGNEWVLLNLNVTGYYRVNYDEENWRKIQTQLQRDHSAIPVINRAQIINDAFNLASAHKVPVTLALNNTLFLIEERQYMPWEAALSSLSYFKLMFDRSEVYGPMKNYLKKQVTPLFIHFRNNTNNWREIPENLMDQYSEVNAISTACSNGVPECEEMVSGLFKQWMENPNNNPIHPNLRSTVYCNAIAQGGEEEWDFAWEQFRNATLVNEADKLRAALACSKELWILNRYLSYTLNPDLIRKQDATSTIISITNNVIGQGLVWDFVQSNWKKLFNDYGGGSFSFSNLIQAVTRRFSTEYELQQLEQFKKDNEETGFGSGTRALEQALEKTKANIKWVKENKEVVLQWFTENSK
Sequence of 72 kDa type IV collagenase (P08253 whole entry): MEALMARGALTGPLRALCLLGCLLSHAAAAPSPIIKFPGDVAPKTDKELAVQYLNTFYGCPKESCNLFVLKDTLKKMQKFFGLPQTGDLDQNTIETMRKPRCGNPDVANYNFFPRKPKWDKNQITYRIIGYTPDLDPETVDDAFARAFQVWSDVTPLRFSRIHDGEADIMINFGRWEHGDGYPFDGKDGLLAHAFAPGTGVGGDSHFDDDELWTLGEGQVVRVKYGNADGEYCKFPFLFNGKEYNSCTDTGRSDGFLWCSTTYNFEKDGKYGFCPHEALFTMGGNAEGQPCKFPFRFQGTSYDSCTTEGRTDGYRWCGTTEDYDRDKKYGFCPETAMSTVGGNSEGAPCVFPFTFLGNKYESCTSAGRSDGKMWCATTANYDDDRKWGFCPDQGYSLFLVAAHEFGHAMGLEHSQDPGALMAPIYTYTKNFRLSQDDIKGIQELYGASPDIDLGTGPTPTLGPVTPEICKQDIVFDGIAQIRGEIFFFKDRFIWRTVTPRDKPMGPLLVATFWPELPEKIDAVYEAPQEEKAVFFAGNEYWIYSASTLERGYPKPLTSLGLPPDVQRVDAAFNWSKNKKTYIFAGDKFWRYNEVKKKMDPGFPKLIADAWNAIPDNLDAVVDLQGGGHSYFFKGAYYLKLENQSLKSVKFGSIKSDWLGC

Structure (SMILES): Cc1ccc(NC(=O)CN2C(=O)CC[C@H](NC(=O)C(N)Cc3ccccc3)C2=O)c(C)c1 (stereo partly drawn)
IC50 (Aminopeptidase N [1]): 5000 nM
IC50 (HL-60 [2]): 1970 nM

Structure (SMILES): CC[C@H](C)[C@H](NC(=O)C(S)C(N)CCC(=O)O)C(=O)N[C@@H](CC(=O)O)C(=O)O (stereo partly drawn)
Ki (Glutamyl aminopeptidase [3]): 13 nM
Ki (Aminopeptidase N [4]): 120 nM

Structure (SMILES): CC(C)C[C@@H](NC(=O)[C@H](Cc1ccccc1)NC(=O)[C@@H](O)CN)C(=O)O
IC50 (SK-OV-3): 380 nM
IC50 (Aminopeptidase N [6]): 12200 nM
IC50 [7]: 203000 nM
IC50 (HL-60 [8]): 170 nM

Structure (SMILES): CC1(C)OB(C(N)Cc2ccccc2)OC1(C)C (stereo not drawn)
IC50 (Aminopeptidase N [5]): 20 nM

Structure (SMILES): CC(N)B1OC(C)(C)C(C)(C)O1 (stereo not drawn)
IC50 (Aminopeptidase N [5]): 40 nM

Structure (SMILES): CC(N)P(=O)(O)C[C@@H](Cc1ccccc1)C(=O)N[C@@](C)(Cc1ccccc1)C(=O)O (stereo partly drawn)
Ki (Glutamyl aminopeptidase [10]): 130 nM
Ki (Aminopeptidase N [11]): 0.6 nM

Structure (SMILES): C(=C1/c2ccccc2-c2c1ccc1ccccc21)/c1cc2c3c(cccc3c1)-c1ccccc1-2
Ki (Aminopeptidase N [12]): 1630 nM

Structure (SMILES): N#Cc1cc(Cc2ccc3c(ccc4ccccc43)c2C#N)cc2c1ccc1ccccc12
Ki (Aminopeptidase N [12]): 2900 nM

Structure (SMILES): CC(C)C[C@H](C(=O)N[C@H](C(=O)OC1CCCC1)c1ccccc1)[C@H](O)C(=O)NO
Ratio IC50 [13]: 300
Ratio IC50 [14]: 2
IC50 (Aminopeptidase N [5]): 220 nM
IC50 (Cytosol aminopeptidase): 100 nM

Structure (SMILES): CC(C)C[C@@H](N)CS
Ki (Leucine aminopeptidase): 22 nM

Structure (SMILES): CC(C)C[C@H](NC(=O)[C@@H](O)[C@H](N)Cc1ccccc1)C(=O)O [UBENIMEX]
solubility [16]: 35.7 mM (≈ 11 mg/mL)

Structure (SMILES): Cc1ccc(C(=O)NN/C(=N/S(=O)(=O)c2ccc(-n3nc(C(F)(F)F)cc3-c3cccs3)cc2)N2CCCC2)cc1
Ki (Aminopeptidase N [12]): 1950 nM

Structure (SMILES): NC1COc2ccccc2CC1=O (stereo not drawn)
Ki (Aminopeptidase N [12]): 1000 nM

Structure (SMILES): CC(C)C[C@@H](NC(=O)[C@H](Cc1ccc(O)cc1)NC(=O)[C@@H](O)CN)C(=O)O
IC50 (Aminopeptidase N [6]): 2510 nM

Continued, in another order:

IC50 (Aminopeptidase N [5]): 25 nM
Structure (SMILES): CC(C)CC(N)B1OC(C)(C)C(C)(C)O1 (stereo not drawn)

Ki (Glutamyl aminopeptidase [3]): 17200 nM
Ki (Aminopeptidase B): 1000 nM
Structure (SMILES): CSCCC(N)CS (stereo not drawn)
Activity (Mus musculus): >220%

IC50 [9]: 8 nM
IC50 (Cytosol aminopeptidase): 30 nM
Structure (SMILES): CC(C)C[C@H](C(=O)N[C@H](C(=O)O)c1ccccc1)[C@H](O)C(=O)NO

IC50 (Aminopeptidase N [15]): 400 nM
Ki (Aminopeptidase N [15]): 170 nM
Structure (SMILES): CCCCC[C@H](CC(=O)NO)C(=O)N[C@H](C(=O)N1CCC[C@H]1CO)C(C)C [ACTINONIN]

Ki (Glutamyl aminopeptidase [10]): 40000 nM
Ki (Aminopeptidase N [11]): 1.5 nM
Structure (SMILES): C[C@@](Cc1ccccc1)(NC(=O)[C@H](Cc1ccccc1)CP(=O)(O)C(N)Cc1ccccc1)C(=O)O (stereo partly drawn)

IC50 (MDA-MB-231): 260000 nM
IC50 (Aminopeptidase N [1]): 7200 nM
solubility [16]: 85.2 mM (≈ 41.3 mg/mL)
IC50 (A549): 36000 nM
Structure (SMILES): CC(C)CC(NC(=O)C(O)C(N)Cc1ccccc1)C(=O)NC(CO)C(=O)NCc1ccccc1 (stereo not drawn)
IC50 [17]: 12600 nM
